pIC50: −log10 of the molar value.
Experiments:
[1] = molecular target: CDK4/Cyclin D1 (Homo sapiens, UniProt P11802); assay: CDK4/Cyclin D1 kinase inhibition TR-FRET assay; type: biochemical; details: 1 mM ATP, 0.15 μM Rb (Ser780)-biotin substrate, read-out: CDK4D1 IC50
Experimental: (§1) Compounds disclosed herein were tested for inhibition of CDK4/Cyclin D1 or CDK6/Cyclin D3 kinase in an assay based on the time-resolved fluorescence-resonance energy transfer (TR-FRET) methodology. The assay was carried out in 384-well low volume black plates in a reaction mixture containing CDK4/Cyclin D1 or CDK6/Cyclin D3, 1 mM ATP, 0.15 μM Rb (Ser780)-biotin substrate and 0-10 μM compound in buffer containing 50 mM HEPES pH7.0, 0.02% NaN3, 0.01% BSA, 0.1 mM Orthovanadate, 50 mM MgCl2, 1 mM DTT and 0.005% Tween-20. The kinase was incubated with compound for 60 minutes at room temperature and the reaction was initiated by the addition of ATP and Rb (Ser780)-biotin substrate. After reaction at room temperature for 120 minutes, an equal volume of stop/detection solution was added according to the manufacture's instruction (Cisbio Bioassays). The stop/detection solution contained Streptavidin-XL665 and Anti-pRb (Ser780) mAb-Eu Cryptate in Detection buffer (Cisbio Bioassays). Plates were incubated at room temperature for 60 minutes, and the TR-FRET signals (ex337 nm, em665 nm/620 nm) were recorded on a PHERAstar FSX plate reader (BMG Labtech). The inhibition percentage of CDK4/Cyclin D1 or CDK6/Cyclin D3 kinase activity in presence of increasing concentrations of compounds was calculated based on the ratio of fluorescence at 665 nm to that at 620 nm. The IC50 for each compound was derived from fitting the data to the four-parameter logistic equation by Dotmatics.

[2] = molecular target: CDK6/Cyclin D3 (Homo sapiens, UniProt Q00534); assay: CDK6/Cyclin D3 kinase inhibition TR-FRET assay; type: biochemical; details: 1 mM ATP, 0.15 μM Rb (Ser780)-biotin substrate, read-out: CDK6D3 IC50
Sequence of CDK6/Cyclin D3 (Q00534 whole entry): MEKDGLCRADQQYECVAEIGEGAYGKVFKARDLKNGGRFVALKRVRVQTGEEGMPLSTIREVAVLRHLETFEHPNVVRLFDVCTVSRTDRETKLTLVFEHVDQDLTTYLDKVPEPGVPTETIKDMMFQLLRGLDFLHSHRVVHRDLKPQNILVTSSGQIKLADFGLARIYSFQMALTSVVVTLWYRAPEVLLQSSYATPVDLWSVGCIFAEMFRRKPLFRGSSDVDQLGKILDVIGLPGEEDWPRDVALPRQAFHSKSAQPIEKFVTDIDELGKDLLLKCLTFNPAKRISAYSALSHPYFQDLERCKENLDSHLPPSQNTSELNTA
Sequence of CDK6/Cyclin D3 (P30281 whole entry partner): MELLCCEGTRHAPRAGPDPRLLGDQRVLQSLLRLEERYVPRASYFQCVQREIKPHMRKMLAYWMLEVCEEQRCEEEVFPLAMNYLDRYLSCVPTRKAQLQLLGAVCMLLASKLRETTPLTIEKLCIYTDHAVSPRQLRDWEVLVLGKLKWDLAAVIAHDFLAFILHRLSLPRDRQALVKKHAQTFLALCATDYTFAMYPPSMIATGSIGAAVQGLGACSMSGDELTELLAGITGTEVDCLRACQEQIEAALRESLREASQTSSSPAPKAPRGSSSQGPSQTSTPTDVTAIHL
Experimental: as §1

Sequence of CDK4/Cyclin D1 (P11802 whole entry): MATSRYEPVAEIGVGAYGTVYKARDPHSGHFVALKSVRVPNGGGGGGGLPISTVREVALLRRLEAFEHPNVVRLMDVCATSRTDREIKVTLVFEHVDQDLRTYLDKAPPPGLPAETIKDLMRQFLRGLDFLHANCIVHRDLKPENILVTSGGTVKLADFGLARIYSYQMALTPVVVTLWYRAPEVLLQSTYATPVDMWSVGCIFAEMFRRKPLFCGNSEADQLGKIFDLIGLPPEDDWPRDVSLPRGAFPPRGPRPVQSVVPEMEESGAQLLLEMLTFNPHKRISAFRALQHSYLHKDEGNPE
Sequence of CDK4/Cyclin D1 (P24385 whole entry partner): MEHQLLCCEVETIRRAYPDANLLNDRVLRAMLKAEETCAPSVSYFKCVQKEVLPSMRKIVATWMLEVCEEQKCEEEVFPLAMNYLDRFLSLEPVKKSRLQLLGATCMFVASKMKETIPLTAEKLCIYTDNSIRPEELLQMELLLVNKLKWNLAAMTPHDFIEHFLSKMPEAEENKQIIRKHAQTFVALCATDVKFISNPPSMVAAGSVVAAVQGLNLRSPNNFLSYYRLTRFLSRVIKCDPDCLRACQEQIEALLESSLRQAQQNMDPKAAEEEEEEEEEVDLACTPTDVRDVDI

Row | Compound | pIC50 [1] | pIC50 [2]
1 | CC(C)c1c(CN2CC(O)C2)cnc2ccc(-c3nc(N[C@@H]4CCOC[C@@H]4O)ncc3F)cc12 [Example 5, 1-((6-(5-fluoro-2-(((3R,4R)-3-hydroxytetrahydro-2H-pyran-4-yl)amino)pyrimidin-4-yl)-4-isopropylquinolin-3-yl)methyl)azetidin-3-ol] | 7.59 | 5.74
2 | CC(C)c1c(CO)cnc2ccc(-c3nc(N[C@@H]4CCOC[C@@H]4O)ncc3F)cc12 [Example 1, (3R,4R)-4-((5-fluoro-4-(3-(hydroxymethyl)-4-isopropylquinolin-6-yl)pyrimidin-2-yl)amino)tetrahydro-2H-pyran-3-ol] | 8.10 | 6.97
3 | CC(C)c1c(C2(O)CCCC2)cnc2ccc(-c3nc(N[C@@H]4CCOC[C@@H]4O)ncc3F)cc12 [Example 12, (3R,4R)-4-((5-fluoro-4-(3-(1-hydroxycyclopentyl)-4-isopropylquinolin-6-yl)pyrimidin-2-yl)amino)tetrahydro-2H-pyran-3-ol] | 8.26 | 6.52
4 | CC(C)c1c(CN2CCOCC2)cnc2ccc(-c3nc(N[C@@H]4CCOC[C@@H]4O)ncc3F)cc12 [Example 2, (3R,4R)-4-((5-fluoro-4-(4-isopropyl-3-(morpholinomethyl)quinolin-6-yl)pyrimidin-2-yl)amino)tetrahydro-2H-pyran-3-ol] | 7.68 | 6.34
5 | CC(C)c1c(CN2[C@H](C)COC[C@H]2C)cnc2ccc(-c3nc(N[C@@H]4CCOC[C@@H]4O)ncc3F)cc12 [Example 9, (3R,4R)-4-((4-(3-(((3R,5R)-3,5-dimethylmorpholino)methyl)-4-isopropylquinolin-6-yl)-5-fluoropyrimidin-2-yl)amino)tetrahydro-2H-pyran-3-ol] | 7.66 | 6.27
6 | CC(C)c1c(C(C)(C)O)cnc2c(F)cc(-c3nc(N[C@@H]4CCOC[C@@H]4O)ncc3Cl)cc12 [Example 17, (3R,4R)-4-((5-chloro-4-(8-fluoro-3-(2-hydroxypropan-2-yl)-4-isopropylquinolin-6-yl)pyrimidin-2-yl)amino)tetrahydro-2H-pyran-3-ol] | 8.05 | 6.64
7 | CC(C)c1c(CN2[C@H](C)COC[C@@H]2C)cnc2c(F)cc(-c3nc(N[C@@H]4CCOC[C@@H]4O)ncc3Cl)cc12 [Example 21, (3R,4R)-4-((5-chloro-4-(3-(((3R,5S)-3,5-dimethylmorpholino)methyl)-8-fluoro-4-isopropylquinolin-6-yl)pyrimidin-2-yl)amino)tetrahydro-2H-pyran-3-ol] | 8.10 | 6.39
8 | CC(C)c1c(CN2[C@H](C)COC[C@@H]2C)cnc2ccc(-c3nc(N[C@@H]4CCOC[C@@H]4O)ncc3F)cc12 [Example 8, (3R,4R)-4-((4-(3-(((3R,5S)-3,5-dimethylmorpholino)methyl)-4-isopropylquinolin-6-yl)-5-fluoropyrimidin-2-yl)amino)tetrahydro-2H-pyran-3-ol] | 7.68 | 6.04
9 | CC(C)c1c(C2(O)CCOCC2)cnc2c(F)cc(-c3nc(N[C@@H]4CCOC[C@@H]4O)ncc3Cl)cc12 [Example 18, (3R,4R)-4-((5-chloro-4-(8-fluoro-3-(4-hydroxytetrahydro-2H-pyran-4-yl)-4-isopropylquinolin-6-yl)pyrimidin-2-yl)amino)tetrahydro-2H-pyran-3-ol] | 8.08 | 6.56
10 | CC(C)c1c(CN2CCC[C@H](C#N)C2)cnc2ccc(-c3nc(N[C@@H]4CCOC[C@@H]4O)ncc3F)cc12 [Example 6, (S)-1-((6-(5-fluoro-2-(((3R,4R)-3-hydroxytetrahydro-2H-pyran-4-yl)amino)pyrimidin-4-yl)-4-isopropylquinolin-3-yl)methyl)piperidine-3-carbonitrile] | 8.15 | 6.56
11 | CC(C)c1c(CN)cnc2ccc(-c3nc(N[C@@H]4CCOC[C@@H]4O)ncc3F)cc12 [Example 4, (3R,4R)-4-((4-(3-(aminomethyl)-4-isopropylquinolin-6-yl)-5-fluoropyrimidin-2-yl)amino)tetrahydro-2H-pyran-3-ol] | 8.59 | 6.72
12 | CC(C)c1c(CN2CCC[C@@H](C#N)C2)cnc2ccc(-c3nc(N[C@@H]4CCOC[C@@H]4O)ncc3F)cc12 [Example 7, (R)-1-((6-(5-fluoro-2-(((3R,4R)-3-hydroxytetrahydro-2H-pyran-4-yl)amino)pyrimidin-4-yl)-4-isopropylquinolin-3-yl)methyl)piperidine-3-carbonitrile] | 7.62 | 6.26

Results, then the compound that gave them:

Row | pIC50 [1] | pIC50 [2] | Compound
13 | 7.68 | 6.15 | CC(C)c1c(CN[C@@H]2CCCOC2)cnc2c(F)cc(-c3nc(N[C@@H]4CCOC[C@@H]4O)ncc3F)cc12 [Example 15, (3R,4R)-4-((5-fluoro-4-(8-fluoro-4-isopropyl-3-((((R)-tetrahydro-2H-pyran-3-yl)amino)methyl)quinolin-6-yl)pyrimidin-2-yl)amino)tetrahydro-2H-pyran-3-ol]
14 | 7.82 | 6.34 | CC(C)c1c(CNC2CC(F)(F)C2)cnc2c(F)cc(-c3nc(N[C@@H]4CCOC[C@@H]4O)ncc3F)cc12 [Example 14, (3R,4R)-4-((4-(3-(((3,3-difluorocyclobutyl)amino)methyl)-8-fluoro-4-isopropylquinolin-6-yl)-5-fluoropyrimidin-2-yl)amino)tetrahydro-2H-pyran-3-ol]
15 | 7.92 | 6.29 | CC(C)c1c(CNC2CC2)cnc2ccc(-c3nc(N[C@@H]4CCOC[C@@H]4O)ncc3F)cc12 [Example 10, (3R,4R)-4-((4-(3-((cyclopropylamino)methyl)-4-isopropylquinolin-6-yl)-5-fluoropyrimidin-2-yl)amino)tetrahydro-2H-pyran-3-ol]
16 | 8.12 | 6.54 | CC(C)c1c(CN2[C@H](C)COC[C@@H]2C)cnc2c(F)cc(-c3nc(N[C@@H]4CCOC[C@@H]4O)ncc3F)cc12 [Example 13, (3R,4R)-4-((4-(3-(((3R,5S)-3,5-dimethylmorpholino)methyl)-8-fluoro-4-isopropylquinolin-6-yl)-5-fluoropyrimidin-2-yl)amino)tetrahydro-2H-pyran-3-ol]
17 | 7.80 | 5.90 | CC(C)c1c(CN[C@H]2CCOC2)cnc2ccc(-c3nc(N[C@@H]4CCOC[C@@H]4O)ncc3F)cc12 [Example 11, (3R,4R)-4-((5-fluoro-4-(4-isopropyl-3-((((S)-tetrahydrofuran-3-yl)amino)methyl)quinolin-6-yl)pyrimidin-2-yl)amino)tetrahydro-2H-pyran-3-ol]
18 | 7.80 | 5.96 | CC(C)c1c(CN[C@@H]2CCCOC2)cnc2ccc(-c3nc(N[C@@H]4CCOC[C@@H]4O)ncc3F)cc12 [Example 3, (3R,4R)-4-((5-fluoro-4-(4-isopropyl-3-((((R)-tetrahydro-2H-pyran-3-yl)amino)methyl)quinolin-6-yl)pyrimidin-2-yl)amino)tetrahydro-2H-pyran-3-ol]
19 | 8.36 | 7.03 | CC(C)c1c(C2(O)CCCC2)cnc2c(F)cc(-c3nc(N[C@@H]4CCOC[C@@H]4O)ncc3F)cc12 [Example 16, (3R,4R)-4-((5-fluoro-4-(8-fluoro-3-(1-hydroxycyclopentyl)-4-isopropylquinolin-6-yl)pyrimidin-2-yl)amino)tetrahydro-2H-pyran-3-ol]
